In patent US20140113898A1, “BISARYLSULFONE AND DIALKYLARYLSULFONE COMPOUNDS AS CALCIUM CHANNEL BLOCKERS” (Zalicus Pharmaceuticals Ltd., priority 2010, published 2014):
Like-named read-outs stand apart in the source and are kept apart here.

How the values were obtained:
Assay type in all cases: cell-based
[1] = biological target: T1, CaV2.2 (Homo sapiens, UniProt Q00975); experiment: High-throughput CaV2.2/Kir2.3 FLIPR fluorescent assay; conditions: Fluo-4 FLIPR, closed or inactivated state not stated, read-out: FLIPR data CaV2.2
T1 construct: expressed in transfected cells; host or cells: unnamed doxycycline-inducible cell line
In short: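 IC50 was derived by logistic fitting of the FLIPR Fluo-4 signal recorded over 3 min after a 130 mM KCl stimulus. Before stimulation, cells (channel expression induced with doxycycline, 29 °C on assay day) were kept in pH 7.4 buffer with 2 mM KCl for the closed-state format or 12.5 mM KCl for the inactivated-state format.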

[2] = biological target: T2, CaV3.1 (Homo sapiens, UniProt O43497); experiment: High-throughput CaV3.1 T-type FLIPR fluorescent assay; conditions: Fluo-4 FLIPR
T2 construct: expressed in transfected cells; host or cells: unnamed doxycycline-inducible cell line
Experimental: (§1) Cells were plated in 384-well, clear-bottom, black-walled, poly-D-lysine coated plates (Becton Dickinson, Franklin Lake, N.J.) 2 days prior to use in the FLIPR assay. 100 μL of cells (2.0×10^6 cell/mL) containing doxycyline (Sigma-Aldrich, 1.5 μg/mL; to induce channel expression) were added to each well using a Multidrop (Thermo Scientific, Waltham, Mass.) and were maintained in 5% CO2 incubator at 37° C. On the morning of the assay, cells were transferred to a 5% CO2 incubator at 29° C.
Cells were washed with a wash buffer containing (in mM): 118 NaCl, 18.4 HEPES, 11.7 D-glucose, 0.05 CaCl2, 0.5 MgSO4, 1 KCl, and 1.2 KH2PO4, with the pH adjusted to 7.2 with NaOH. 4.4 μM of the fluorescent indicator dye, Fluo-4 (Invitrogen), prepared in pluronic acid
(Sigma-Aldrich), was loaded into the wells and incubated for 45 minutes at 29° C. in 5% CO2. Cells were then rinsed with the following low Ca^2+ buffer (in mM): 0.34 Na2HPO4, 4.2 NaHCO3, 0.44 KH2PO4, 0.41 MgSO4, 0.49 MgCl2-6H2O, 20 HEPES, 5.5 D-Glucose, 137 NaCl, 5.3 KCl, and 0.001 CaCl2, with 0.1% BSA and the pH adjusted to 7.2 with NaOH. Concentration-dependent response curves were generated from 5 mM stock solutions prepared in DMSO (Sigma-Aldrich) and diluted in the buffer containing low Ca^2+ and incubated for 20 minutes at 29° C. in 5% CO2. Calcium entry was evoked with an addition of (in mM): 0.34 Na2HPO4, 4.2 NaHCO3, 0.44 KH2PO4, 0.41 MgSO4, 0.49 MgCl2-6H2O, 20 HEPES, 5.5 D-Glucose, 137 NaCl, 5.3 KCl, and 6 CaCl2, with 0.1% BSA and the pH adjusted to 7.2 with NaOH. A change in the Fluo-4 fluorescence signal was assessed using FLIPR^TETRA™ instrument (Molecular Devices, Sunnyvale, Calif.) for 3 minutes following the elevation of extracellular KCl using an illumination wavelength of 470-495 nm with emissions recorded at 515-575 nm.
(§2) Concentration-dependent response curves were obtained by comparing the fluorescence signal in the presence of compound and fitted with a logistic function (1) to obtain the concentration that inhibited 50% (IC50) of the RLU signal using OriginPro v.7.5 software (OriginLab, Northampton, Mass.).
(§3) To assess the quality of the FLIPR assays the Z-factor (2) was used to quantify the suitability of the assay conditions using the following equation: […]
(§4) Data are expressed as mean and standard deviation (SD).

[3] = biological target: T3, CaV3.2 (Homo sapiens, UniProt O95180); experiment: High-throughput CaV3.2/Kir2.3 T-type FLIPR fluorescent assay; conditions: Fluo-4 FLIPR, closed or inactivated state not stated
T3 construct: expressed in transfected cells; host or cells: unnamed doxycycline-inducible cell line
Experimental: as §1, with “µL” for “μL”, “(1.2×10^6” for “(2.0×10^6”
Cells were washed with a wash buffer containing (in mM): 118 NaCl, 18.4 HEPES, 11.7 D-glucose, 2 CaCl2, 0.5 MgSO4, 4.7 KCl, and 1.2 KH2PO4, with the pH adjusted to 7.2 with
NaOH. 4.4 μM of the fluorescent indicator dye Fluo-4 (Invitrogen) prepared in pluronic acid (Sigma-Aldrich) was loaded into the wells and incubated for 45 minutes at 29° C. in 5% CO2. Cells were then rinsed with either a 2 mM KCl closed-state buffer (in mM: 138.5 NaCl, 10 HEPES, 10 D-glucose, 1 CaCl2, and 2 KCl, with the pH adjusted to 7.4 with NaOH) when performing the closed-state assay or 7.6 mM KCl inactivated-state buffer (in mM: 130.9 NaCl, 10 HEPES, 10 D-glucose, 1 CaCl2, and 7.6 mM KCl, with the pH adjusted to 7.4 with NaOH) when performing the inactivated-state assay. Concentration-dependent response curves were generated from 5 mM stock solutions prepared in DMSO (Sigma-Aldrich), diluted in either the 2 mM KCl buffer or 7.6 mM KCl buffer, and incubated for 20 minutes at 29° C. in 5% CO2. Calcium entry was evoked with an addition of either 12 mM KCl stimulation buffer (in mM: 128.5 NaCl, 10 HEPES, 10 D-glucose, 1 CaCl2, and 12 KCl, with the pH adjusted to 7.4 with NaOH) or 14.5 mM KCl stimulation buffer (in mM: 126 NaCl, 10 HEPES, 10 D-glucose, 1 CaCl2, and 14.5 KCl, with the pH adjusted to 7.4 with NaOH) for the closed-state or inactivated-state assay respectively. A change in the Fluo-4 fluorescence signal was assessed using FLIPR^TETRA™ instrument (Molecular Devices, Sunnyvale, Calif.) for 3 minutes following the elevation of extracellular KCl using an illumination wavelength of 470-495 nm with emissions recorded at 515-575 nm.
as §2, §3, §4

T2 sequence (O43497 whole entry): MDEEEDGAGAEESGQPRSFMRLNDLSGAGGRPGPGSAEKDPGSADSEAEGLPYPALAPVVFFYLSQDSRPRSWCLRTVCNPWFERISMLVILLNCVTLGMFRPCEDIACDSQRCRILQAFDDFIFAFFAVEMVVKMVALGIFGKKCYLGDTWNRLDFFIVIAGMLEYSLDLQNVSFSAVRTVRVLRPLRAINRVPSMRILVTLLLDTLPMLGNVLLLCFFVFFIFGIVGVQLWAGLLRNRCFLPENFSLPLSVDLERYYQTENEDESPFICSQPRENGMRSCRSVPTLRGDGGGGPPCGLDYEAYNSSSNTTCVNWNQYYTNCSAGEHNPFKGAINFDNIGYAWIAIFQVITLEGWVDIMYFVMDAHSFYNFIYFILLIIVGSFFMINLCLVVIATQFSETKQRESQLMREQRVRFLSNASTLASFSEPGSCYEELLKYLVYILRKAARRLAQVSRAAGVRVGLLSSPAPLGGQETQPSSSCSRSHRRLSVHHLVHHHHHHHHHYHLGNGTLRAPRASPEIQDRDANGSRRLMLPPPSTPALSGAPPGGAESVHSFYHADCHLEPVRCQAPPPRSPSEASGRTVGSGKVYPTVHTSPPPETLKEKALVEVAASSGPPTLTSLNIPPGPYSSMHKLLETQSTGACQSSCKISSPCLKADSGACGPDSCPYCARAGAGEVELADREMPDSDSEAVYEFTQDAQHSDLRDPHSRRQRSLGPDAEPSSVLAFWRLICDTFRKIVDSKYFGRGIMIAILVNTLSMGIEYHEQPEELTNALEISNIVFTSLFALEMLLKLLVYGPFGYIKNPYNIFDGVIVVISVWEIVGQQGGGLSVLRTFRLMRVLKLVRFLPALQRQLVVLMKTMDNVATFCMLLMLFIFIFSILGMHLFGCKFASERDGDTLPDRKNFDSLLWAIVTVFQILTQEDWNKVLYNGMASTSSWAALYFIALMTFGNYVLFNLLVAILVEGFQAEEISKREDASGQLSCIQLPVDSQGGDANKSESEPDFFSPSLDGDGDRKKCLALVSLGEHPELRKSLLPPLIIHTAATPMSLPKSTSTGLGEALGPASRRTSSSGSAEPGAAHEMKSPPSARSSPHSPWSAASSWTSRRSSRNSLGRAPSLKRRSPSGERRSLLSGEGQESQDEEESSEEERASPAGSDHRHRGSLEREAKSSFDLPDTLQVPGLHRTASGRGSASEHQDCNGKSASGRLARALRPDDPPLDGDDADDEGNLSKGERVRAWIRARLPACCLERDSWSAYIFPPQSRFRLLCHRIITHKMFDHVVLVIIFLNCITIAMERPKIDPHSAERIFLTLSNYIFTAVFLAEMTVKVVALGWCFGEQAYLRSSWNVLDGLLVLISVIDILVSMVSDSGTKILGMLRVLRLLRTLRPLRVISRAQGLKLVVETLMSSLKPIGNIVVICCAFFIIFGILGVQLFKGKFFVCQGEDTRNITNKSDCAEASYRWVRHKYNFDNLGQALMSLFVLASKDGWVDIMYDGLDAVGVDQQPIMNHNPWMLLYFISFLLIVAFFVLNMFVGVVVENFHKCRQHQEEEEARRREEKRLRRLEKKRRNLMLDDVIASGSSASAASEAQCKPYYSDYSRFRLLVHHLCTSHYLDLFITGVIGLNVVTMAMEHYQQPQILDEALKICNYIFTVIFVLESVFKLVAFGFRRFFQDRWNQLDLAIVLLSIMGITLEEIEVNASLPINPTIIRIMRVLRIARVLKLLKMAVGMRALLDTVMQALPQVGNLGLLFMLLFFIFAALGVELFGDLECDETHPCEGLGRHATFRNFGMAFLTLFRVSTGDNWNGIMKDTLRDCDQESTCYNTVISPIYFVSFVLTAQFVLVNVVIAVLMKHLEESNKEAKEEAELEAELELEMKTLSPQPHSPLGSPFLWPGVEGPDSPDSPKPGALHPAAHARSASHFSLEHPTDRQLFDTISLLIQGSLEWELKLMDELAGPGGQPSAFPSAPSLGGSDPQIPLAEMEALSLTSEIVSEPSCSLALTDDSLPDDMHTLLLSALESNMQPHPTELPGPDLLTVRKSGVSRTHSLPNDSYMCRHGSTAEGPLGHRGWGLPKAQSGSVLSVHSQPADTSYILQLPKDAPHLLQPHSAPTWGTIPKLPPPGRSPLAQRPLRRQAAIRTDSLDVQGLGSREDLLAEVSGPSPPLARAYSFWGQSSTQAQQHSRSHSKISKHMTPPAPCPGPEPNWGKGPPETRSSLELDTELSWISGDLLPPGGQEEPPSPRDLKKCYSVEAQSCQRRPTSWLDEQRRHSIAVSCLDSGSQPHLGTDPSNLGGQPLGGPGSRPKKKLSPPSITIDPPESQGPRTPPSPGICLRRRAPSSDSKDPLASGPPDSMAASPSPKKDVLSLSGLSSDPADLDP
T3 sequence (O95180 whole entry): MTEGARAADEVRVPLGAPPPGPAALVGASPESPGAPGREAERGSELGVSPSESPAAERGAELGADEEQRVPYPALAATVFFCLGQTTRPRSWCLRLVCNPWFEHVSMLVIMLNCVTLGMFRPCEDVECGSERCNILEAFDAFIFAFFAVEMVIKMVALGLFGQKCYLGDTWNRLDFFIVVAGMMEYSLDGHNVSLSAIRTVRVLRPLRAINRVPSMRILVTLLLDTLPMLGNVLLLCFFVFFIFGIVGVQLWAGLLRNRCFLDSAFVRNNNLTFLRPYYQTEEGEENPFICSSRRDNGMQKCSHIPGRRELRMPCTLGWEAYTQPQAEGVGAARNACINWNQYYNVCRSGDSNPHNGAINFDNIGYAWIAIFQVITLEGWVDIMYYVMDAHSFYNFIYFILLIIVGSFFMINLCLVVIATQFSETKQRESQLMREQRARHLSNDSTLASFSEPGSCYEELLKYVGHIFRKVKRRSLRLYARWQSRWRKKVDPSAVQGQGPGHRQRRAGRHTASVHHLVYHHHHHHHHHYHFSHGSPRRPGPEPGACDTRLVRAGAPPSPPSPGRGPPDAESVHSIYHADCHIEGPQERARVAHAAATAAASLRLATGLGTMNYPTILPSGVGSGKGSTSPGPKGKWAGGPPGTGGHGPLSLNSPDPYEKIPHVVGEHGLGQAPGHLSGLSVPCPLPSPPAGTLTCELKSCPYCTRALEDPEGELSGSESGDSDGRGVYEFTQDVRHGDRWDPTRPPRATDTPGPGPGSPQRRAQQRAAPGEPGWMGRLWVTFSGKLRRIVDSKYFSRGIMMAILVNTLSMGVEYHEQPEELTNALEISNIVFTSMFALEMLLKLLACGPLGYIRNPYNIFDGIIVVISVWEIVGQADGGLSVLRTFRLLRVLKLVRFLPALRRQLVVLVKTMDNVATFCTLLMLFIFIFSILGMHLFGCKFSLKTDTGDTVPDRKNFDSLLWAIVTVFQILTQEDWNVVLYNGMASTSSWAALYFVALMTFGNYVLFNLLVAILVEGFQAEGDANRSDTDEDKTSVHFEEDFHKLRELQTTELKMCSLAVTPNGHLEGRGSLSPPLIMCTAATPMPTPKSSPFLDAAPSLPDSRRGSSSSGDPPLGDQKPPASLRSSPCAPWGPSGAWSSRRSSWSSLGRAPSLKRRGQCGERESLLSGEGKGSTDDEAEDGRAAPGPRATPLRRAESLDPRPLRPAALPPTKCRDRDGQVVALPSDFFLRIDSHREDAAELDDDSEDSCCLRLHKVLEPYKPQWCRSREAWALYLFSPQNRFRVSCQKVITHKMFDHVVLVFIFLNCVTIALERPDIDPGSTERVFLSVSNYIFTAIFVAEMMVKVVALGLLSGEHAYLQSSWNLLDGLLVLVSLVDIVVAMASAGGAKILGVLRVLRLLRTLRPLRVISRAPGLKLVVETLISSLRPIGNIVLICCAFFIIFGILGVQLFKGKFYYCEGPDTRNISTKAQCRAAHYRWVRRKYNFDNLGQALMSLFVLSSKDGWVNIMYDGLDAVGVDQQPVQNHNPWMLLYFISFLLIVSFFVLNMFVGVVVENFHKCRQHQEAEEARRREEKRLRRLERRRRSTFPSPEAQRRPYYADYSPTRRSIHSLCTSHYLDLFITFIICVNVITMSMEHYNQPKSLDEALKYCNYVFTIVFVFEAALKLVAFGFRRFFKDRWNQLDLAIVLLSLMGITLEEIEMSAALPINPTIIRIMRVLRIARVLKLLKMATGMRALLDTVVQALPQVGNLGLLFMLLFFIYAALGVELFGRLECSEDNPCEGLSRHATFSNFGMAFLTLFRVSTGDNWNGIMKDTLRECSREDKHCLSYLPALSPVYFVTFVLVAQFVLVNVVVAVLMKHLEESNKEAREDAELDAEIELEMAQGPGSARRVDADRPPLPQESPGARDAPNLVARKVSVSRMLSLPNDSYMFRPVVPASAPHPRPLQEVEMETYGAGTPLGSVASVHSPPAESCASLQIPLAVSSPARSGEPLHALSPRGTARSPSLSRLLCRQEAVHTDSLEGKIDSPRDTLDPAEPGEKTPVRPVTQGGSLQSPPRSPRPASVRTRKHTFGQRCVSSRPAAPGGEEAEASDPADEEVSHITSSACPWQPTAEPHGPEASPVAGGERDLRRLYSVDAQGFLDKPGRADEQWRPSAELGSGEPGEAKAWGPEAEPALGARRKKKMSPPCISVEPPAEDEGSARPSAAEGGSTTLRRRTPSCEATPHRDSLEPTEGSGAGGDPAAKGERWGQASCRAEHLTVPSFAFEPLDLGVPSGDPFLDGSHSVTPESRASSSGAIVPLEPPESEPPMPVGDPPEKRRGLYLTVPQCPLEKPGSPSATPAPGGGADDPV

Compound | IC50 ([1]; Table 4) [nM] | IC50 ([2]; Table 4) [nM] | IC50 ([3]; Table 4) [nM] | IC50 ([1]; Table 5) [nM] | IC50 ([2]; Table 5) [nM] | IC50 ([3]; Table 5) [nM]
CC(C)(CCN1CCn2nc(C(F)(F)F)cc2C1=O)S(=O)(=O)c1cccc(C(F)(F)F)c1 [Compound 187, 5-(3-methyl-3-((3-(trifluoromethyl)phenyl)sulfonyl)butyl)-2-(trifluoromethyl)-6,7-dihydropyrazolo[1,5-a]pyrazin-4(5H)-one] |  |  |  | 420 | 5050 | 4310
O=C(NCc1cc(S(=O)(=O)c2cccc(C(F)(F)F)c2)ccn1)[C@@H]1C[C@@H](C2CCCCC2)CN1 [Compound 118, (2S,4S)-4-cyclohexyl-N-((4-((3-(trifluoromethyl)phenyl)sulfonyl)pyridin-2-yl)methyl)pyrrolidine-2-carboxamide] | 760 | 4760 | 2400 |  |  | 
CC(C)(CCNC(=O)[C@@H]1C[C@@H](C2CCCCC2)CN1)S(=O)(=O)c1cccc(C(F)(F)F)c1 [Compound 218, (2S,4S)-4-cyclohexyl-N-(3-methyl-3-((3-(trifluoromethyl)phenyl)sulfonyl)butyl)pyrrolidine-2-carboxamide] |  |  |  | 740 | 5640 | 3210
CC(C)(CNC(=O)C(C)(C)S(=O)(=O)c1cccc(C(F)(F)F)c1)S(=O)(=O)c1cccc(C(F)(F)F)c1 [Compound 149, 2-methyl-N-(2-methyl-2-((3-(trifluoromethyl)phenyl)sulfonyl)propyl)-2-((3-(trifluoromethyl)phenyl)sulfonyl)propanamide] |  |  |  | 460 | 3850 | 2860
O=C(NCc1ccc(S(=O)(=O)c2cccc(C(F)(F)F)c2)cc1)c1cc(F)cc(Cl)c1 [Compound 2, 3-chloro-5-fluoro-N-(4-((3-(trifluoromethyl)phenyl)sulfonyl)benzyl)benzamide] | 950 | 1500 | 850 |  |  | 
CC(C)(C(=O)Nc1ccc(Oc2ccc(F)c(C(F)(F)F)c2)nc1)S(=O)(=O)c1cccc(OC(F)(F)F)c1 [Compound 119, N-(6-(4-fluoro-3-(trifluoromethyl)phenoxy)pyridin-3-yl)-2-methyl-2-((3-(trifluoromethoxy)phenyl)sulfonyl)propanamide] |  |  |  | 200 | 5800 | 4310
CC(C)(C(=O)N1CCC(c2cccc(Cl)c2)CC1)S(=O)(=O)c1cccc(C(F)(F)F)c1 [Compound 133, 1-(4-(3-chlorophenyl)piperidin-1-yl)-2-methyl-2-((3-(trifluoromethyl)phenyl)sulfonyl)propan-1-one] |  |  |  | 1160 | 2160 | 4960

More lines, in order of falling IC50 ([1]; Table 4), values ahead:

IC50 ([1]; Table 4) [nM] | IC50 ([2]; Table 4) [nM] | IC50 ([3]; Table 4) [nM] | IC50 ([1]; Table 5) [nM] | IC50 ([2]; Table 5) [nM] | IC50 ([3]; Table 5) [nM] | Compound
740 | 1040 | 1250 |  |  |  | O=C(NCc1ccccc1S(=O)(=O)c1cccc(C(F)(F)F)c1)c1ccc(C(F)(F)F)cn1 [Compound 39, 5-(trifluoromethyl)-N-(2-((3-(trifluoromethyl)phenyl)sulfonyl)benzyl)picolinamide]
740 | 680 | 1300 |  |  |  | O=C(NCc1ccccc1S(=O)(=O)c1cccc(C(F)(F)F)c1)c1ccc(F)c(Cl)c1 [Compound 52, 3-chloro-4-fluoro-N-(2-((3-(trifluoromethyl)phenyl)sulfonyl)benzyl)benzamide]
740 | 1390 | 490 |  |  |  | O=C(NCc1ccc(S(=O)(=O)c2cccc(C(F)(F)F)c2)cc1)c1ccc(Cl)c(OC(F)(F)F)c1 [Compound 15, 4-chloro-3-(trifluoromethoxy)-N-(4-((3-(trifluoromethyl)phenyl)sulfonyl)benzyl)benzamide]
640 | 1560 | 2140 |  |  |  | CC(C)S(=O)(=O)c1cc(C(F)(F)F)cnc1C(=O)NCc1ccc(S(=O)(=O)c2cccc(C(F)(F)F)c2)cn1 [Compound 96, 3-(isopropylsulfonyl)-5-(trifluoromethyl)-N-((5-((3-(trifluoromethyl)phenyl)sulfonyl)pyridin-2-yl)methyl)picolinamide]
450 | 6980 | 2090 |  |  |  | O=C(NCc1ccc(S(=O)(=O)c2cccc(C(F)(F)F)c2)cn1)[C@H]1C[C@@H](C2CCCCC2)CN1 [Compound 107, (2R,4S)-4-cyclohexyl-N-((5-((3-(trifluoromethyl)phenyl)sulfonyl)pyridin-2-yl)methyl)pyrrolidine-2-carboxamide]
410 | 1070 | 590 |  |  |  | CS(=O)(=O)c1cc(C(F)(F)F)ccc1C(=O)NCc1ccc(S(=O)(=O)c2cccc(C(F)(F)F)c2)cc1 [Compound 11, 2-(methylsulfonyl)-4-(trifluoromethyl)-N-(4-((3-(trifluoromethyl)phenyl)sulfonyl)benzyl)benzamide]
390 | 1330 | 510 |  |  |  | Cn1nc(C(F)(F)F)cc1C(=O)NCc1ccc(S(=O)(=O)c2cccc(C(F)(F)F)c2)cc1 [Compound 7, 1-methyl-3-(trifluoromethyl)-N-(4-((3-(trifluoromethyl)phenyl)sulfonyl)benzyl)-1H-pyrazole-5-carboxamide]
380 | 920 | 1390 |  |  |  | Cn1nc(C(F)(F)F)cc1C(=O)NCc1ccccc1S(=O)(=O)c1cccc(C(F)(F)F)c1 [Compound 41, 1-methyl-3-(trifluoromethyl)-N-(2-((3-(trifluoromethyl)phenyl)sulfonyl)benzyl)-1H-pyrazole-5-carboxamide]
230 | 1810 | 930 |  |  |  | O=C(NCc1cccc(S(=O)(=O)c2cccc(C(F)(F)F)c2)c1)c1ccc(C(F)(F)F)cn1 [Compound 20, 5-(trifluoromethyl)-N-(3-((3-(trifluoromethyl)phenyl)sulfonyl)benzyl)picolinamide]
190 | 1510 | 730 |  |  |  | CS(=O)(=O)c1cc(C(F)(F)F)ccc1C(=O)NCc1cccc(S(=O)(=O)c2cccc(C(F)(F)F)c2)c1 [Compound 28, 2-(methylsulfonyl)-4-(trifluoromethyl)-N-(3-((3-(trifluoromethyl)phenyl)sulfonyl)benzyl)benzamide]
